Assay results reported in ChEMBL document CHEMBL1649335, “Discovery of {1-[4-(2-{hexahydropyrrolo[3,4-c]pyrrol-2(1H)-yl}-1H-benzimidazol-1-yl)piperidin-1-yl]cyclooctyl}methanol, systemically potent novel non-peptide agonist of nociceptin/orphanin FQ receptor as analgesic for the treatment of neuropathic pain: design, synthesis, and structure-activity …” (Bioorg Med Chem, 2010).
Active and inactive are the calls of the source.

Legend:
[1] = molecular target: Muscarinic acetylcholine receptor M3 (Homo sapiens) (UniProt P20309); assay: Inhibition of human muscarinic M3 receptor at 1 uM relative to control
Chain of Muscarinic acetylcholine receptor M3 (Homo sapiens) (P20309 whole entry, looked up): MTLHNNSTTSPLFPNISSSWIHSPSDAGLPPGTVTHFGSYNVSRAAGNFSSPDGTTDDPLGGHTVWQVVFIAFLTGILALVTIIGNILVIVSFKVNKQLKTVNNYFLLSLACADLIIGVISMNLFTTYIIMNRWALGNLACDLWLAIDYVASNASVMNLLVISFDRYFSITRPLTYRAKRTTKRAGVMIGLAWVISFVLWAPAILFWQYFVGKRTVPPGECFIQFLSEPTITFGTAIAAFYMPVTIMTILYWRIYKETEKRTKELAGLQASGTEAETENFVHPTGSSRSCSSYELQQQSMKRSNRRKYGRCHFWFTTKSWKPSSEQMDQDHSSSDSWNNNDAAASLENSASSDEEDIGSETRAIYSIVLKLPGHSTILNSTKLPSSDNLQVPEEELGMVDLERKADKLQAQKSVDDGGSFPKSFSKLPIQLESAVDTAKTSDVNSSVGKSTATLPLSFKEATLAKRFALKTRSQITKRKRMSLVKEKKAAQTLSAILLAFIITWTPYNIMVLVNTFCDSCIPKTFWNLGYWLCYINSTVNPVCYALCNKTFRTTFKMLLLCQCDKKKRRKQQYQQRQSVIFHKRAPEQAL

Rattus norvegicus [2] = organism: Rattus norvegicus; assay: Inhibition of rat AMPA receptor at 1 uM relative to control
[3] = molecular target: Small conductance calcium-activated potassium channel protein 1 (Rattus norvegicus) (UniProt P70606); assay: Inhibition of rat SKCa channel at 1 uM relative to control
Chain of Small conductance calcium-activated potassium channel protein 1 (Rattus norvegicus) (P70606 whole entry): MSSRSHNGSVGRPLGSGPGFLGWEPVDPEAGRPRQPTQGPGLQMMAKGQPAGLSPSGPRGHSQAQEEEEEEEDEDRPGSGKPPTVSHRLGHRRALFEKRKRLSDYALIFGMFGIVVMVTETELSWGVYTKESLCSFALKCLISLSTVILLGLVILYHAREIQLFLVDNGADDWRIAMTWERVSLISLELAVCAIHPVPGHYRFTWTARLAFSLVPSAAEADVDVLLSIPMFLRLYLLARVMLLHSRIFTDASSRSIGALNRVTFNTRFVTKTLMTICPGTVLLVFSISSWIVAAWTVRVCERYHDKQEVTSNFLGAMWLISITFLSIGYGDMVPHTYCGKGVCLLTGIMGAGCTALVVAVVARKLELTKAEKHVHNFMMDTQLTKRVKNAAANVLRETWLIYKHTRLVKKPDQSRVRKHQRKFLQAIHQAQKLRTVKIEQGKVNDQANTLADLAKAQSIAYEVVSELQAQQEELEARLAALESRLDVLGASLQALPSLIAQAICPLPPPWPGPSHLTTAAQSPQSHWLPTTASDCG

[4] = molecular target: Cannabinoid receptor 1 (Homo sapiens) (UniProt P21554); assay: Inhibition of human cannabinoid CB1 receptor at 1 uM relative to control
Chain of Cannabinoid receptor 1 (Homo sapiens) (P21554 whole entry): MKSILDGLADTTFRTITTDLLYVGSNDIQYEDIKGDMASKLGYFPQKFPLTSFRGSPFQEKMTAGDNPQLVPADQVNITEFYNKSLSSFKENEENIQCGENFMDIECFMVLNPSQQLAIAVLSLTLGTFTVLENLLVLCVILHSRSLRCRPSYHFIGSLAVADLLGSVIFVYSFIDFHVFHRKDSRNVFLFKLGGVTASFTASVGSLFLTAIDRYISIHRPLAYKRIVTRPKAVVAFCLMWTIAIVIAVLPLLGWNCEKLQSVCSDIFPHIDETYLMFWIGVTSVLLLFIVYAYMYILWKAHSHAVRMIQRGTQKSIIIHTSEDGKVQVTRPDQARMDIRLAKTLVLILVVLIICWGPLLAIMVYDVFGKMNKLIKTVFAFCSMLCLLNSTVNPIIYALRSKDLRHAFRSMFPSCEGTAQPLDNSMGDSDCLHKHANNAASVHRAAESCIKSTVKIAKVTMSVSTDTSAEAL

[5] = molecular target: Muscarinic acetylcholine receptor M2 (Homo sapiens) (UniProt P08172); assay: Inhibition of human muscarinic M2 receptor at 1 uM relative to control
Chain of Muscarinic acetylcholine receptor M2 (Homo sapiens) (P08172 whole entry): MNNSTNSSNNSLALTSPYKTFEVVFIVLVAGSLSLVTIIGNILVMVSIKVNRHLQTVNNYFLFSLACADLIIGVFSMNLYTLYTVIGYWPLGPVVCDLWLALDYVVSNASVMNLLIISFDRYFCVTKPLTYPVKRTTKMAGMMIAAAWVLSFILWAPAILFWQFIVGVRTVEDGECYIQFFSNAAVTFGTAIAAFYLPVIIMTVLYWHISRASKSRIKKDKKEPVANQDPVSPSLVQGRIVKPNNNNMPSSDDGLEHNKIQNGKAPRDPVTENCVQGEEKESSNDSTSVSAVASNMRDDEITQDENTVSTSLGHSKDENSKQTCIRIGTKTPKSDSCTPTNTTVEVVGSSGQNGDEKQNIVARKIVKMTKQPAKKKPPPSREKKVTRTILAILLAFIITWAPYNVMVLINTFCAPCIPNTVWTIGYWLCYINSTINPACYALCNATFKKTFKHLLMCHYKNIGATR

monoamine oxidase A = monoamine oxidase A (Homo sapiens, UniProt P21397); assay: Inhibition of human monoamine oxidase A at 1 uM relative to control
Rattus norvegicus [6] = assay: Antiallodynic activity against von Frey hair mechanically stimulated neuropathic pain in sc dosed Sprague-Dawley rat assessed as increase of response threshold after 4 hrs; type: functional
[7] = molecular target: Vasopressin V1a receptor (Homo sapiens) (UniProt P37288); assay: Inhibition of human vasopressin V1A receptor at 1 uM relative to control
Chain of Vasopressin V1a receptor (Homo sapiens) (P37288 whole entry, looked up): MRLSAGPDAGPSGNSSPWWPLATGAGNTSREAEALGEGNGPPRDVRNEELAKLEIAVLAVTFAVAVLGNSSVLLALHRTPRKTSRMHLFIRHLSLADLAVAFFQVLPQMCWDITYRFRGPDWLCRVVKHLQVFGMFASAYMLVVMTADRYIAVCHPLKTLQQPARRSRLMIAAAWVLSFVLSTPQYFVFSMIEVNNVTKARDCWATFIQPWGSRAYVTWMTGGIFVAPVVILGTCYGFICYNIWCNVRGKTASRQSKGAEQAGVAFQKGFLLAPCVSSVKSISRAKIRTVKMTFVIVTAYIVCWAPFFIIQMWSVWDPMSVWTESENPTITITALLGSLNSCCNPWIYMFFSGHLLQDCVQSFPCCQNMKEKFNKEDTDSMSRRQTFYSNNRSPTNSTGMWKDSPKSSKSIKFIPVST

Rattus norvegicus [8] = organism: Rattus norvegicus; assay: Inhibition of rat sodium channel site 2 at 1 uM relative to control
Rattus norvegicus [9] = assay: Antiallodynic activity against von Frey hair mechanically stimulated neuropathic pain in Sprague-Dawley rat assessed as effect on allodynia in contralateral paw at 5.5 to 170 nmol/site administered intrathecally after 1 hr; type: functional, organism-based
Rattus norvegicus [10] = assay: Antiallodynic activity against von Frey hair mechanically stimulated neuropathic pain in Sprague-Dawley rat assessed as increase of response threshold at 10 mg/kg, sc after 1 hr relative to control; type: functional; conditions: route subcutaneous
Rattus norvegicus [11] = assay: Antiallodynic activity against von Frey hair mechanically stimulated neuropathic pain in Sprague-Dawley rat assessed as effect on allodynia in contralateral paw at 5.5 to 170 nmol/site, icv after 1 hr; type: functional, organism-based
[12] = Drug level Sprague-Dawley rat brain at 10 mg/kg, sc after 0.5 hrs; type: ADME, organism-based; design: dose 10 mg/kg, route subcutaneous; conditions: read-out: Drug uptake
Rattus norvegicus [13] = organism: Rattus norvegicus; assay: Stimulation of rat guanylate cyclase at 1 uM relative to basal activity
[14] = molecular target: Adrenergic receptor alpha-1 (Rattus norvegicus) (UniProt P15823+P23944+P43140); assay: Inhibition of rat alpha1 adrenoceptor at 1 uM relative to control
Rattus norvegicus [15] = assay: Antiallodynic activity against von Frey hair mechanically stimulated neuropathic pain in Sprague-Dawley rat assessed as increase of response threshold per site at 5.5 to 170 nmol/site, icv after 1 hr; type: functional, organism-based
Rattus norvegicus [16] = assay: Antiallodynic activity against von Frey hair mechanically stimulated neuropathic pain in Sprague-Dawley rat assessed as increase of response threshold at 30 mg/kg, sc after 2 hrs relative to control; type: functional; conditions: route subcutaneous
[17] = molecular target: Adrenergic receptor alpha-2 (Rattus norvegicus) (UniProt P22086+P19328+P22909); assay: Inhibition of rat alpha2 adrenoceptor at 1 uM relative to control
[18] = molecular target: Cysteinyl leukotriene receptor 1 (Homo sapiens) (UniProt Q9Y271); assay: Inhibition of human leukotriene D4 receptor at 1 uM relative to control
Rattus norvegicus [19] = assay: Toxicity in von Frey hair mechanically stimulated neuropathic pain Sprague-Dawley rat model assessed as respiratory depression at up to 170 nmol/site, administered intrathecally; type: organism-based; conditions: in vivo, icv_or_intrathecal
Rattus norvegicus [20] = organism: Rattus norvegicus; assay: Inhibition of rat phospholipase C at 1 uM relative to control
[21] = molecular target: D(4) dopamine receptor (Homo sapiens) (UniProt P21917); assay: Inhibition of human dopamine D4.4 receptor at 1 uM relative to control
[22] = Drug level Sprague-Dawley rat plasma at 10 mg/kg, sc after […]; type: ADME, organism-based; design: dose 10 mg/kg, route subcutaneous; conditions: read-out: Drug uptake
Rattus norvegicus [23] = organism: Rattus norvegicus; assay: Inhibition of rat chloride channel at 1 uM relative to control
[24] = molecular target: D(3) dopamine receptor (Homo sapiens) (UniProt P35462); assay: Inhibition of human dopamine D3 receptor at 1 uM relative to control
Chain of D(3) dopamine receptor (Homo sapiens) (P35462 whole entry): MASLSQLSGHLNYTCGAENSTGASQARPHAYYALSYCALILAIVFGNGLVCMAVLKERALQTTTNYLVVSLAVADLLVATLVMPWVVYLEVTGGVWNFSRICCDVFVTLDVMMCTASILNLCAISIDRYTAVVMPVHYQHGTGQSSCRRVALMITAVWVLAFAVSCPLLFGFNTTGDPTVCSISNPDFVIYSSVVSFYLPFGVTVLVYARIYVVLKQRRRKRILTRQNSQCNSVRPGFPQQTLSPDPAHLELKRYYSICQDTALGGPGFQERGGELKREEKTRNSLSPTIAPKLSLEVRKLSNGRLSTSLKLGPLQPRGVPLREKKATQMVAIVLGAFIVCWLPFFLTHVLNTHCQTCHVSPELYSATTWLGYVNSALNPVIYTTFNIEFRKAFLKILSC

Rattus norvegicus [25] = assay: Antiallodynic activity against von Frey hair mechanically stimulated neuropathic pain in sc dosed Sprague-Dawley rat assessed as assessed as minimum effective dose to increase of response threshold after 30 mins; type: functional
Rattus norvegicus [26] = organism: Rattus norvegicus; assay: Inhibition of rat 5-HT receptor at 1 uM relative to control
Rattus norvegicus [27] = assay: Antiallodynic activity against von Frey hair mechanically stimulated neuropathic pain in Sprague-Dawley rat assessed as assessed as minimum effective dose to increase of response threshold per site at 5.5 to 170 nmol/site, icv after 1 hr; type: functional, organism-based
Rattus norvegicus [28] = assay: Antiallodynic activity against von Frey hair mechanically stimulated neuropathic pain in sc dosed Sprague-Dawley rat assessed as assessed as minimum effective dose to increase of response threshold after 1 hr; type: functional
Rattus norvegicus [29] = assay: Antiallodynic activity against von Frey hair mechanically stimulated neuropathic pain in intrathecally dosed Sprague-Dawley rat assessed as assessed as minimum effective dose to increase of response threshold per site after 1 hr; type: functional
Rattus norvegicus [30] = organism: Rattus norvegicus; assay: Inhibition of rat GABA receptor at 1 uM relative to control
[31] = molecular target: L-type calcium channel, dihydropyridine site (Rattus norvegicus, UniProt P22002+P27732+Q02485); assay: Inhibition of rat L-type calcium channel dihydropyridine site at 1 uM relative to control
[32] = molecular target: Substance-P receptor (Homo sapiens) (UniProt P25103); assay: Inhibition of human tachykinin NK1 receptor at 1 uM relative to control
[33] = molecular target: Tyrosine 3-monooxygenase (Rattus norvegicus) (UniProt P04177); assay: Inhibition of rat tyrosine hydroxylase at 1 uM relative to control
Chain of Tyrosine 3-monooxygenase (Rattus norvegicus) (P04177 whole entry): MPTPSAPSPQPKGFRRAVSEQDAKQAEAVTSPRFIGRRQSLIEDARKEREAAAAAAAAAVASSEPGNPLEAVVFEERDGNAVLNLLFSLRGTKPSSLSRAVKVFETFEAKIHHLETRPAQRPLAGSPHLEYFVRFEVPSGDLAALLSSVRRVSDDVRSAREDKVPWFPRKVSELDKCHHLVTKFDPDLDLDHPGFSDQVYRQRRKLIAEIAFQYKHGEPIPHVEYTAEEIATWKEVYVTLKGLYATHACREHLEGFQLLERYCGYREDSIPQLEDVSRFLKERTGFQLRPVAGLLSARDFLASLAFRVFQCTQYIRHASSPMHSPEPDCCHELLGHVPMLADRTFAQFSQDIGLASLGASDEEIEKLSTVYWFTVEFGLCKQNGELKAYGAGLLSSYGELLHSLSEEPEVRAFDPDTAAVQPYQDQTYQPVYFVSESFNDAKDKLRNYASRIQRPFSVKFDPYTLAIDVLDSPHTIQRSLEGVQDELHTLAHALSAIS

[34] = Drug level Sprague-Dawley rat brain at 10 mg/kg, sc after […]; type: ADME, organism-based; design: dose 10 mg/kg, route subcutaneous; conditions: read-out: Drug uptake
Nociceptin receptor = Nociceptin receptor (Homo sapiens, UniProt P41146)
[35] = molecular target: Histamine H1 receptor (Cavia porcellus) (UniProt P31389); assay: Inhibition of guinea pig histamine H1 receptor at 1 uM relative to control
Chain of Histamine H1 receptor (Cavia porcellus) (P31389 whole entry): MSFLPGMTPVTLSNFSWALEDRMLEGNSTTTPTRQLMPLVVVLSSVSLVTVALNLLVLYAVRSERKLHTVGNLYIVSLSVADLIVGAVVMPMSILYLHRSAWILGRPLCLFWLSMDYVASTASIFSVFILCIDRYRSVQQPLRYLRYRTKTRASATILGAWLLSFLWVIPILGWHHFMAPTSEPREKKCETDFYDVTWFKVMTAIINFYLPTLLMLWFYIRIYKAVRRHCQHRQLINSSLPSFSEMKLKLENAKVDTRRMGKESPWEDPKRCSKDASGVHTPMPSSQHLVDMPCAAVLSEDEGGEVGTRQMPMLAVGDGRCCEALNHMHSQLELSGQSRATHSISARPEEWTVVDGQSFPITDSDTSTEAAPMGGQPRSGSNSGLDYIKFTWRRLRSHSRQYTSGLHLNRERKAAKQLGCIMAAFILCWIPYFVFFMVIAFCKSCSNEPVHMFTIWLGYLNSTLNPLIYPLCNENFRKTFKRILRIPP

Rattus norvegicus [36] = assay: Antiallodynic activity against von Frey hair mechanically stimulated neuropathic pain in Sprague-Dawley rat assessed as increase of response threshold per site at 55 nmol/site administered intrathecally after 1 hr relative to control; type: functional
Mu-type opioid receptor = Mu-type opioid receptor (Homo sapiens, UniProt P35372)
[37] = molecular target: Adenosine receptor A2a (Homo sapiens) (UniProt P29274); assay: Inhibition of human adenosine A2A receptor at 1 uM relative to control
Chain of Adenosine receptor A2a (Homo sapiens) (P29274 whole entry): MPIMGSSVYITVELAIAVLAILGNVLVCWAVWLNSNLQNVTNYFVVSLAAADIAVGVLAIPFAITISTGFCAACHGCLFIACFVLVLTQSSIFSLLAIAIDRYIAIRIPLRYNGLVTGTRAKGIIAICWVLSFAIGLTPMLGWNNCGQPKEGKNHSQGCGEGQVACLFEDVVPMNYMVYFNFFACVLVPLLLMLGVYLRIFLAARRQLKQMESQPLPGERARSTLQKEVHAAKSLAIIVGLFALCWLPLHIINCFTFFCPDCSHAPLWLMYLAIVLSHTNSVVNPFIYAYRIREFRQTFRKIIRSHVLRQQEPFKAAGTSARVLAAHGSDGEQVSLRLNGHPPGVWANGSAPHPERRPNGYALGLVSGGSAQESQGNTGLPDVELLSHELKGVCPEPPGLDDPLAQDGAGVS

Rattus norvegicus [38] = assay: Antiallodynic activity against von Frey hair mechanically stimulated neuropathic pain in sc dosed Sprague-Dawley rat assessed as increase of response threshold after 2 hrs; type: functional
Rattus norvegicus [39] = organism: Rattus norvegicus; assay: Inhibition of rat glycine receptor at 1 uM relative to control
[40] = molecular target: Sodium-dependent serotonin transporter (Homo sapiens) (UniProt P31645); assay: Inhibition of human 5-HT transporter at 1 uM relative to control
Chain of Sodium-dependent serotonin transporter (Homo sapiens) (P31645 whole entry, looked up): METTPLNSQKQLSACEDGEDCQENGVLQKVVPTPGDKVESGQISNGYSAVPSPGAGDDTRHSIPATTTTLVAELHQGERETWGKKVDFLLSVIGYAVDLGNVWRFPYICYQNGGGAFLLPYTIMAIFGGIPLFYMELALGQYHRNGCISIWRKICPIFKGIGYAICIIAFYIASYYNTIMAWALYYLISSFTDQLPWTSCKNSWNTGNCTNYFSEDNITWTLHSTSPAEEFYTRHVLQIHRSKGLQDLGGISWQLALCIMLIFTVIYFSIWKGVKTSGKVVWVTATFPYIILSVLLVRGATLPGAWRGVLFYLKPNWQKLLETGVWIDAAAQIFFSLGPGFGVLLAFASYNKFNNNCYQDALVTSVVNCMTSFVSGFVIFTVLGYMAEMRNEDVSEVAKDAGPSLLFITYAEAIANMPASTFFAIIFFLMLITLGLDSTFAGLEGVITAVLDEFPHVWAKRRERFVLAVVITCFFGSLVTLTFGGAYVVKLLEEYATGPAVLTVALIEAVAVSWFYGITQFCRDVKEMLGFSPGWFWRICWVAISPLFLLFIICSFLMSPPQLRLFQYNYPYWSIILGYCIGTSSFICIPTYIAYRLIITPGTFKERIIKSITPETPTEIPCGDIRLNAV

Rattus norvegicus [41] = assay: Toxicity in von Frey hair mechanically stimulated neuropathic pain Sprague-Dawley rat model assessed as sedation effect at up to 30 mg/kg, sc; type: organism-based; design: dose 30 mg/kg, route subcutaneous; conditions: in vivo
Rattus norvegicus [42] = assay: Antiallodynic activity against von Frey hair mechanically stimulated neuropathic pain in Sprague-Dawley rat assessed as effect on allodynia in contralateral paw at 1 to 30 mg/kg, sc after 30 mins; type: functional, organism-based

With `OCC1(N2CCC(n3c(N4CC5CNCC5C4)nc4ccccc43)CC2)CCCCCCC1` (stereo not given) the inhibition [1] was less than 10%, the inhibition (Rattus norvegicus [2]) was less than 10% and the inhibition [3] was less than 10%. The inhibition [4] was 18%, the inhibition [5] was 19% and the inhibition at 1 µM (monoamine oxidase A) was 12%. The ED50 (Rattus norvegicus [6]) was greater than 30 mg/kg, the inhibition [7] was less than 10% and the inhibition (Rattus norvegicus [8]) was less than 10%. For the same compound, the Activity (Rattus norvegicus [9]) was “inactive”, the Activity (Rattus norvegicus [10]) was 37.6% and the Activity (Rattus norvegicus [11]) was “inactive”. The concentration at 0.5 h [12] was 152 ng/mL, the inhibition (Rattus norvegicus [13]) was less than 10% and the inhibition [14] was 16%. The ED50 (Rattus norvegicus [15]) was “inactive”, the Activity (Rattus norvegicus [16]) was 35.8% and the inhibition [17] was less than 10%. For the same compound, the inhibition [18] was less than 10%, the Activity (Rattus norvegicus [19]) was “Non-toxic” and the inhibition (Rattus norvegicus [20]) was less than 10%. The inhibition [21] was less than 10%, the concentration at […] [22] was 504 ng/mL and the inhibition (Rattus norvegicus [23]) was less than 10%. It also gave an inhibition [24] of less than 10%, an MED (Rattus norvegicus [25]) of 30 mg/kg and an inhibition (Rattus norvegicus [26]) of less than 10%. The MED (Rattus norvegicus [27]) was “inactive”, the MED (Rattus norvegicus [28]) was 10 mg/kg and the MED (Rattus norvegicus [29]) was 55 nmol. The inhibition (Rattus norvegicus [30]) was less than 10%, the inhibition at 1 µM [31] was less than 10% and the inhibition [32] was less than 10%. It also gave an inhibition [33] of less than 10%, a concentration at […] [34] of 226 ng/mL and an EC50 (Nociceptin receptor) of 0.012 µM. It also gave an inhibition [35] of less than 10%, an Activity (Rattus norvegicus [36]) of 31.1% and an EC50 (Mu-type opioid receptor) of 3.5 µM. It also gave an inhibition [37] of less than 10%, an ED50 (Rattus norvegicus [38]) greater than 30 mg/kg and an inhibition (Rattus norvegicus [39]) of less than 10%. The inhibition [40] was less than 10%, the Activity (Rattus norvegicus [41]) was “Non-toxic” and the Activity (Rattus norvegicus [42]) was “inactive”.
